US12637457B2, “Salt form and crystal form of JAK inhibitor, preparation method therefor, and use thereof” (SHANGHAI FUDAN-ZHANGJIANG BIO-PHARMACEUTICAL CO., LTD., priority 2020, dated 2026)
Where two headings read alike, the source gives them in different places. One block for each molecule: values may come before it.

What was measured:
[1] = Solubility test in common solvents (visual dissolution); assay type: physicochemical; settings: 25° C.±5° C., observed within 30 minutes
Description: The sample that has been ground into fine powder was weighed and added to a certain volume of solvent (ambient temperature: 25° C.±5° C.), shaken strongly for 30 seconds every 5 minutes, and the dissolution was observed within 30 minutes. If there were no visually visible solute particles or droplets, the sample was regarded as completely dissolved. According to this method, the dissolution of crystal form A of the hydrochloride hydrate of the compound shown in formula I and the free base form of the compound shown in formula I in common solvents was observed, and the results are shown in Table 3.

Single dose PK study = assay type: in vivo; settings: plasma, female SD rats, single oral dose 3 mg/kg, 0.5% CMC-Na suspension
Description: Two groups of SD rats (3 females in each group) were given a single oral dose of 3 mg/kg free base of the compound shown in formula I and a single oral dose of 3 mg/kg crystal form A of hydrochloride hydrate of the compound shown in formula I, respectively. The drug was administered as a 0.5% CMC-Na suspension. Samples were taken at different times until 24 hours, and the drug concentration of the compound shown in formula I in plasma was analyzed by LC-MS/MS method, and the final calculation results are shown in Table 8.
Chromatographic Conditions of LC-MS/MS Method for Compound Shown in Formula I:
• instrument model, SHIMADZU LC-30AD liquid phase system; chromatographic column, ACQUITY UPLC® BEH C18 (2.1×50 mm, 1.7 μm); column temperature, 40° C.; injection volume, 1 μL; flow rate of 0.6 mL/min; run time of 6 min; • the mobile phase gradient settings are shown in Table 5.
Instrument model, AB SCIEX TRIPLE QUAD 6500 mass spectrometer; ion source, electrospray (ESI); ionization mode, positive ion scanning; multi-ion (MRM) ion pairs are shown in Table 6; instrument parameters are shown in Table 7.

[2] = Comparison of thermodynamic stability of crystal forms in saturated ethanol/water solution; assay type: physicochemical; settings: ethanol/water 9:1 saturated solution, 50° C., stirred 24 hours
Description: Crystal form A, crystal form E and crystal form F were respectively dissolved in a mixed solvent of ethanol/water (volume ratio=9:1) to prepare a saturated solution. The saturated solution was heated to 50° C., and 10 mg of crystal form A, crystal form E and crystal form F were respectively added with stirring. The mixture was kept at 50° C., stirred for 24 hours, then filtered, and the XRPD of the resulting crystals was respectively determined (XRPD patterns of crystals precipitated by adding crystal forms A, E and F are shown in FIGS. 10, 11 and 12, respectively).

Hygroscopicity study = assay type: physicochemical; settings: 25° C./75%-RH for 5 days
JAK1 = biological target: T1, JAK1 (Homo sapiens, UniProt P23458); test: HTRF in vitro enzyme activity biochemical assay, JAK1; settings: 1 mM ATP, 500 ng/mL JAK1
T1 construct: purchased Invitrogen PV4774
T1 sequence (P23458 866-1154 limits assumed): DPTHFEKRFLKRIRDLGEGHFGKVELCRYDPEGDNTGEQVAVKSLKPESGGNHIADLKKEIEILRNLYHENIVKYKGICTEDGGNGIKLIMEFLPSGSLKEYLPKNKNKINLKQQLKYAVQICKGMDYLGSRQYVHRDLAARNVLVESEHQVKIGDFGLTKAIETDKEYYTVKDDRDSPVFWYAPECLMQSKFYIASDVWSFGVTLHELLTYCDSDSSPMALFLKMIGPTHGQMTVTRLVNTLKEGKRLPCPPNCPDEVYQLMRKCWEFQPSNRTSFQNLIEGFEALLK
Description: (§1) Then, the concentration of the compound diluent was further diluted to 2.5-fold of the final test concentration with the kinase reaction buffer to obtain a compound solution to be tested.
(§2) The enzymatic reaction was initiated by adding a mixture of 2 μL of substrate and 2 μL of ATP prepared in kinase reaction buffer. […] The percentage of inhibition was calculated according to the formula: percentage of inhibition=100%−ratio value of a treated compound/ratio value of a treated DMSO carrier (DMSO carrier was a blank control group without drugs).
(§3) A dose-response curve was generated, and IC50 was calculated by non-linear S-shaped curve fitting using GraphPad Prism software.

JAK2 = biological target: T2, JAK2 (Homo sapiens, UniProt O60674); test: HTRF in vitro enzyme activity biochemical assay, JAK2; settings: 1 mM ATP, 6 ng/mL JAK2
T2 construct: purchased Carna Biosciences, Inc. 08-045
T2 sequence (O60674 826-1132 limits assumed): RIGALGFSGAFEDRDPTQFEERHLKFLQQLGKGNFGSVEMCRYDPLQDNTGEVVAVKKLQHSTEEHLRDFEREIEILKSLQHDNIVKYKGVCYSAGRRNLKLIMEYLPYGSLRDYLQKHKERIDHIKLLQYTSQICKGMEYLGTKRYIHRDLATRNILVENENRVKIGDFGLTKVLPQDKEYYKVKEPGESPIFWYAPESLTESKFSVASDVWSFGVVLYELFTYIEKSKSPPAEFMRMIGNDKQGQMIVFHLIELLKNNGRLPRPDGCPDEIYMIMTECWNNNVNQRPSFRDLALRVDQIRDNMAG
Description: as §1, §2, §3

JAK3 = biological target: T3, JAK3 (Homo sapiens, UniProt P52333); test: HTRF in vitro enzyme activity biochemical assay, JAK3; settings: 1 mM ATP, 37 ng/mL JAK3
T3 construct: purchased Carna Biosciences, Inc. 08-046
T3 sequence (P52333 795-1124 limits assumed): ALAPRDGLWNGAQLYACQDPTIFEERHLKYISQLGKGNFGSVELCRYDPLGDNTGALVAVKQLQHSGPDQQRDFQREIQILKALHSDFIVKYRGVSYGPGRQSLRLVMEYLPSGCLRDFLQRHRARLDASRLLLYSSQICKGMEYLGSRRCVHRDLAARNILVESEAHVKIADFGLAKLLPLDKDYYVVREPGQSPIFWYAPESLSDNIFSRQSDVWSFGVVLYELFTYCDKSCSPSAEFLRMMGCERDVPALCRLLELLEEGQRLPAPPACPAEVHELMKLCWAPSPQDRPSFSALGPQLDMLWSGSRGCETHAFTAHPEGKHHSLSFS
Description: as §1, §2, §3

TYK2 = biological target: T4, TYK2 (Homo sapiens, UniProt P29597); test: HTRF in vitro enzyme activity biochemical assay, TYK2; settings: 1 mM ATP, 100 ng/mL TYK2
T4 construct: purchased Carna Biosciences, Inc. 08-147
T4 sequence (P29597 871-1187 limits assumed): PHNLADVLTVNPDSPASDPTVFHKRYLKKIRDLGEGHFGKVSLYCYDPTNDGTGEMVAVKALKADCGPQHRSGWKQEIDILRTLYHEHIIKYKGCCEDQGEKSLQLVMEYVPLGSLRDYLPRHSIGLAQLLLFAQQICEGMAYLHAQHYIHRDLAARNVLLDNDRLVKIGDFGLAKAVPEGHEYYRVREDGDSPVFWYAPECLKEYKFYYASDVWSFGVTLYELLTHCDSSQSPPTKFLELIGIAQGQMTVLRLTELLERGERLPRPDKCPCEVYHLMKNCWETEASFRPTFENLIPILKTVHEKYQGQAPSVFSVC
Description: as §1, §2, §3

[3] = Stability test in stable chamber (temperature and humidity); assay type: physicochemical; settings: for Content of compound shown in formula I: HPLC
Description: Whether the temperature and humidity have an impact on the stability of the crystal form A of the hydrochloride hydrate of the compound shown in formula I was tested: […]

[4] = listed as Free base of compound shown in formula I
[5] = 40° C./60%-RH and 25° C./75%-RH, after 30 days

Solubility in ethanol [1, 4]: Slightly soluble
Solubility in methanol [1, 4]: Slightly soluble
Solubility in simulated gastric juice [1, 4]: Insoluble
Solubility in water [1, 4]: Very slightly soluble
Cmax (Single dose PK study; female, SD, rat, po, 3 mg/kg, read-out: Cmax): 352 ng/mL
AUC(0-t) (Single dose PK study; female, SD, rat, po, 3 mg/kg, up to 24 hours): 987 ng·h/mL
Compound: O=C(Nc1cn2c(-c3ccc(CN4CCS(=O)(=O)CC4)cc3F)cccc2n1)C1CC1 [Free base]

Crystal form of the solid after stirring in saturated solution (XRPD) [2]: transformed into crystal form A
Hygroscopic weight gain (Hygroscopicity study): 4.9%
Compound: O=C(Nc1cn2c(-c3ccc(CN4CCS(=O)(=O)CC4)cc3F)cccc2n1)C1CC1 [Crystal form F]

IC50 (JAK1): 145 nM
IC50 (JAK2): 462 nM
IC50 (JAK3): 5520 nM
IC50 (TYK2): 653 nM
Solubility in ethanol [1]: Soluble
Solubility in methanol [1]: Very soluble
Solubility in simulated gastric juice [1]: Sparingly soluble
Solubility in water [1]: Soluble
Change in XRPD compared with initial crystal form [3, 5]: no significant change
Change in appearance compared with initial crystal form [3, 5]: no significant change
Content of compound shown in formula I ([3]; initial): 99.901%
Content of compound shown in formula I ([3]; placed at 25° C./75%-RH for 30 days): 99.899%
Content of compound shown in formula I ([3]; placed at 40° C./75%-RH for 30 days): 99.905%
Crystal form of the solid after stirring in saturated solution (XRPD) [2]: still crystal form A
Cmax (Single dose PK study): 456 ng/mL
AUClast (Single dose PK study; up to 24 hours): 1390 ng·h/mL
Hygroscopic weight gain (Hygroscopicity study): 2.4%
Compound: O=C(Nc1cn2c(-c3ccc(CN4CCS(=O)(=O)CC4)cc3F)cccc2n1)C1CC1 [Crystal form A]

Hygroscopic weight gain (Hygroscopicity study): 8.1%
Compound: O=C(Nc1cn2c(-c3ccc(CN4CCS(=O)(=O)CC4)cc3F)cccc2n1)C1CC1 [Crystal form D]

Hygroscopic weight gain (Hygroscopicity study): 6.1%
Compound: O=C(Nc1cn2c(-c3ccc(CN4CCS(=O)(=O)CC4)cc3F)cccc2n1)C1CC1 [Crystal form C]

Crystal form of the solid after stirring in saturated solution (XRPD) [2]: transformed into crystal form A
Hygroscopic weight gain (Hygroscopicity study): 5.3%
Compound: O=C(Nc1cn2c(-c3ccc(CN4CCS(=O)(=O)CC4)cc3F)cccc2n1)C1CC1 [Crystal form E]
